“Also recorded” adds a separate entry of the source. Like-named read-outs stand apart in the source and are kept apart here.
Legend:
[1] = Concentration of Compound 3 in rat plasma after i.v. liposome (LC/MS/MS); format: in vivo, SD rat; conditions: male, Sprague-Dawley, iv, 40 mg/kg; for AUC / Cmax / half-life / concentration at 5 min / concentration at 1 h / concentration at 2 h / concentration at 6 h / concentration at 24 h: rat, plasma; for concentration at 5 min / concentration at 1 h / concentration at 2 h / concentration at 6 h / concentration at 24 h: SD rat, i.v. BSA-encapsulated pH-responsive liposome ([Lipid]=20 mg/mL, 2 ml/kg), read-out: GGLG concentration in plasma
Procedure: (§1) A pH-responsive liposome was prepared from mixed lipid (Compound (3)/cholesterol/PEG-Glu2C18=5/5/0.03 (mol)) using the high-pressure extrusion method. In the preparation, the particle size of the liposome was adjusted to 200 to 250 nm. Further, BSA was encapsulated in the internal aqueous phase. The prepared pH-responsive liposome ([Lipid]=20 mg/mL) was intravenously administered to a SD rat (male, body weight of 300 g or less) via the tail vein in an amount of 2 ml/kg under ether anesthesia. The number of rats used was N=3. Prior to the administration and 5 minutes, 1, 2, 6 and 24 hours after the administration, blood was collected (about 500 μL). The obtained blood was subjected to centrifugation (2,000×g, 20 minutes) to obtain plasma (liposome-suspended plasma), and this was preserved at −80° C. Further, after blood was collected 24 hours after the administration, the liver, spleen, lung and kidney were isolated, the wet weight thereof was measured, and these materials were preserved at −80° C. After that, homogenization was carried out using a saline in an amount 4 times greater than the wet weight of the organs.
(§2) A material in which the procedure is carried out until 100 μL of methanol is added to 10 μL of homogenate solution of plasma and the organs was used as a sample for measurement of specimen.
(§3) To the above-described sample for measurement, a solution to which an internal standard material (1,5-dihexadecyl N-glutamyl-L-glutamate (αGlu-Glu2C16)) was added (900 μL) was added, and the mixture was subjected to vortex stirring. After that, the mixture was allowed to stand at room temperature for at least 10 minutes. After that, the mixture was subjected to vortex stirring again and centrifuged at 4° C. at 10,000×g for 15 minutes. The obtained supernatant was transferred to an LC vial.
As a column, CAPLCELLPAK C18 MG (Shiseido Co., Ltd.) (3 μm, 2.0×50 mm) was used, and the column temperature was set at 40° C. Gradient elution was carried out using 0.1% acetic acid aqueous solution (A)-0.1% methanol acetate (B). The flow rate was 0.25 mL/min. The temperature of the autoinjector was set at 15° C. Regarding a needle washing solution, chloroform/methanol (1:1) was used for a washing pump, and methanol was used for a washing port.
The eluent that was separated by HPLC was subjected to positive ESI ionization and measured in the MRM mode.
An analyte for producing a calibration curve for measurement of plasma was measured, and a calibration curve of 1-300 μg/mL of plasma was prepared with weighting of 1/x^2 and Quadratic. The peak area of the analyte for measurement of plasma/IS peak area was substituted into the obtained formula of the calibration curve to calculate the concentration of Compound 3 in plasma. FIG. 8 is a graph showing the results. In FIG. 8, (-⋄-), (--[…]--) and (--Δ--) show the results of animal 1, animal 2 and animal 3, respectively.

[2] = Measurement of zeta potential of liposomes; format: physicochemical; conditions: 37°C
Procedure: Portions of the prepared liposome ([lipid]=10 mg/ml) were respectively added to acetate buffers with different pHs (7.4, 7, 6, 5, 4) (30 mM) to the final concentration of [lipid]=1 mg/mL, and then the zeta potential at 37° C. was measured. Zetasizer 4 manufactured by Malvern was used. A capillary cell was filled with a liposome-dispersed liquid obtained by dilution to the measurement concentration, and the measurement was performed at 37° C. 3 times.
Portions of the prepared liposome ([lipid]=10 mg/ml) were respectively added to acetate buffers with different pHs (7.4, 7, 6, 5, 4) (20 mM) to the final concentration of [lipid]=1 mg/mL, and then the zeta potential at 37° C. was measured.
Portions of each of the prepared liposomes ([lipid]=10 mg/ml) were respectively added to acetate buffers with different pHs (7.4, 7, 6, 5, 4) (20 mM) to the final concentration of [lipid]=1 mg/mL, and then the zeta potential at 37° C. was measured.

[3] = Concentration of Compound 3 in rat tissue 24 hours after i.v. liposome (LC/MS/MS); format: in vivo; conditions: for concentration at 24 h: male, SD, rat, iv, 24 hours after i.v. liposome
Procedure: as §1, §2, §3
An analyte for producing a calibration curve for measurement of tissue was measured, and a calibration curve of 1-100 μg/ml was prepared with weighting of 1/x^2 and Quadratic. The peak area of the analyte for measurement of tissue/IS peak area was substituted into the obtained formula of the calibration curve to calculate the concentration of Compound 3 in tissue (in the calculation, the specific gravity of the tissue homogenate was regarded as 1 g/mL). FIG. 9 is a graph showing the results.

[4] = SD rat plasma, i.v. liposome ([Lipid]=20 mg/mL, 2 ml/kg), animal 1
[5] = SD rat plasma, i.v. liposome ([Lipid]=20 mg/mL, 2 ml/kg), Average
[6] = SD rat plasma, i.v. liposome ([Lipid]=20 mg/mL, 2 ml/kg), animal 2
[7] = SD rat plasma, i.v. liposome ([Lipid]=20 mg/mL, 2 ml/kg), animal 3

Compound `CCCCCCCCCCCCCCCCOC(=O)CCC(NC(=O)C(CCCCNC(=O)C(N)CCC(=O)O)NC(=O)C(N)CCC(=O)O)C(=O)OCCCCCCCCCCCCCCCC` (centres unmarked) [Compound 3] has a Tmax [1, 4] of 4.98 min, an AUC [1, 5] of 309 µg·h/mL and a Cmax [1, 5] of 132 µg/mL. It also gave a half-life ([1]; SD rat plasma, i.v. liposome ([Lipid]=20 mg/mL, 2 ml/kg), Average, read-out: t½ (converted)) of 290 min, an AUC [1, 4] of 266 µg·h/mL and a Cmax [1, 4] of 105 µg/mL. It also gave a half-life ([1]; SD rat plasma, i.v. liposome ([Lipid]=20 mg/mL, 2 ml/kg), animal 1, read-out: t½ (converted)) of 302 min, an AUC [1, 6] of 364 µg·h/mL and a Cmax [1, 6] of 153 µg/mL. It also gave a half-life ([1]; SD rat plasma, i.v. liposome ([Lipid]=20 mg/mL, 2 ml/kg), animal 2, read-out: t½ (converted)) of 259 min, an AUC [1, 7] of 297 µg·h/mL and a Cmax [1, 7] of 136 µg/mL. For the same compound, the half-life ([1]; SD rat plasma, i.v. liposome ([Lipid]=20 mg/mL, 2 ml/kg), animal 3, read-out: t½ (converted)) was 311 min, the concentration at 5 min ([1]; Average value (N=3)) was 132 µg/mL and the concentration at 5 min ([1]; animal 1) was 105 µg/mL. For the same compound, the concentration at 5 min ([1]; animal 2) was 153 µg/mL, the concentration at 5 min ([1]; animal 3) was 136 µg/mL and the concentration at 1 h ([1]; Average value (N=3)) was 53.6 µg/mL. For the same compound, the concentration at 1 h ([1]; animal 1) was 44.7 µg/mL, the concentration at 1 h ([1]; animal 2) was 62.4 µg/mL and the concentration at 1 h ([1]; animal 3) was 53.5 µg/mL. It also gave a concentration at 2 h ([1]; Average value (N=3)) of 31200 ng/mL, a concentration at 2 h ([1]; animal 1) of 25800 ng/mL and a concentration at 2 h ([1]; animal 2) of 39300 ng/mL. The concentration at 2 h ([1]; animal 3) was 28500 ng/mL, the concentration at 6 h ([1]; Average value (N=3)) was 8900 ng/mL and the concentration at 6 h ([1]; animal 1) was 8390 ng/mL. For the same compound, the concentration at 6 h ([1]; animal 2) was 10200 ng/mL, the concentration at 6 h ([1]; animal 3) was 8120 ng/mL and the concentration at 24 h ([1]; Average value (N=3)) was 1130 ng/mL. It also gave a concentration at 24 h ([1]; animal 1) of 1020 ng/mL, a concentration at 24 h ([1]; animal 2) of 1200 ng/mL and a concentration at 24 h ([1]; animal 3) of 1170 ng/mL. The half-life ([1]; from concentration in rat plasma, i.v. pH-responsive liposome, read-out: half-life of Compound 3 (converted)) was 288 min, the “zeta potential of the liposome” value ([2]; liposome Compound 3/cholesterol/PEG-Glu2C18 (5/5/0.03), pH 7.4) was “negative” and the “zeta potential as pH was decreased” value ([2]; liposome Compound 3/cholesterol/PEG-Glu2C18 (5/5/0.03 molar ratio), acetate buffers pH 7.4-4 (30 mM)) was “changed from negative to positive”. The “pH at which the zeta potential changed from negative to positive” value ([2]; liposome compound/cholesterol/PEG-Glu2C18 (5/5/0.03 molar ratio), acetate buffers 20 mM) was “about 5.7”, the “distribution of Compound 3 in the organs” value ([3]; SD rat, 24 hours after the administration of pH-responsive liposome) was “mainly localized in the liver and spleen; also recorded: Almost no Compound 3 was localized in the kidney and lung” and the concentration at 24 h ([3]; liver, Liver, Average value) was 76800 ng/g. The concentration at 24 h ([3]; liver, Liver, animal 1) was 110000 ng/g, the concentration at 24 h ([3]; liver, Liver, animal 2) was 64400 ng/g and the concentration at 24 h ([3]; liver, Liver, animal 3) was 55600 ng/g. For the same compound, the concentration at 24 h ([3]; lung, Lung, Average value) was 5600 ng/g, the concentration at 24 h ([3]; lung, Lung, animal 1) was 5600 ng/g and the concentration at 24 h ([3]; lung, Lung, animal 2) was 5020 ng/g. For the same compound, the concentration at 24 h ([3]; lung, Lung, animal 3) was 6170 ng/g, the concentration at 24 h ([3]; spleen, Spleen, Average value) was 33500 ng/g and the concentration at 24 h ([3]; spleen, Spleen, animal 1) was 30400 ng/g. For the same compound, the concentration at 24 h ([3]; spleen, Spleen, animal 2) was 33400 ng/g and the concentration at 24 h ([3]; spleen, Spleen, animal 3) was 36700 ng/g.
